Reference: patent US8431540B2, “Modified lysine-mimetic compounds” (Zealand Pharma A/S, priority 2005, dated 2013)

How the values were obtained:
Plasma stability assay = settings: male rat plasma (1:1 plasma:pH 7.4 buffer), 1 μM, 37° C., 3 hours
Description: To predict its plasma stability, compounds of the present teachings were incubated in male rat plasma (1:1 plasma:pH 7.4 buffer) at 1 μM concentration at 37° C. After 3 hours, the reaction was quenched with cold acetonitrile. The solution was centrifuged and the supernatant was analyzed with LC-MS using the following HPLC conditions: Thermo Hypersil-Keystone Aquasil C18 column (50 mm×2.1 mm, 5 μM) at ambient temperature; Solvent A: 0.1% formic acid in water; Solvent B: 0.1% formic acid in acetonitrile; solvent gradient: 100% A to 50% A over 2.5 min, to 10% A over 1.5 min, and returning to 100% A and re-equilibrating for 1.5 min; flowrate: 0.8 mL/min. The percent of the compound remaining was calculated by dividing the 3-hour incubation sample LC-MS signal area counts by the time=0 area counts.

[1] = Metabolic stability assay (liver microsomes); settings: male, rat
Description: To predict the stability of the compound under first pass (Phase I) metabolism, compounds of the present teachings were incubated with male rat liver microsomes at 1 μM concentration and 0.5 mg/mL protein concentration at 37° C. After 15 min, the reaction was quenched with cold acetonitrile. The solution was centrifuged and the supernatant was analyzed with LC-MS using the HPLC conditions described in section 3 above.

Male CD-1 mice = test: Calcium-induced arrhythmia model (time to AV block after CaCl2 infusion); format: in vivo; settings: compound IV 3 min before CaCl2 infusion (100 mg/kg/min), saline control 62-78
Description: Peptides suitable for administration to cardiac cells can be identified in an in vivo model of calcium-induced arrhythmias according to the model of Lynch et al. (1981) J Cardiovasc. Pharmacol. 3: 49-60. Male CD-1 mice are anaesthetized with Ketamine (75 mg/kg) and medetomidine (1 mg/kg) IP. An i.v. cannula is inserted into the tail vein. A lead II ECG signal is recorded continuously by positioning stainless steel ECG electrodes on the right forelimb and […]. The ground electrode is placed on the right hind limb. The signal is amplified and filtered using Gould physiograph components and po-ne-mah data acquisition software. After a 90 sec equilibration period test compound is injected into the tail vein (over 30 seconds). Mice pre-treated with vehicle are tested as control animals. The injection volume is 100 μl/30 g mice in all experiments. Infusion of CaCl2 (30 mg/mL, 0.1 mL/min/30 g mice, 100 mg/kg/min) is started 3 min after IV administration of drug or vehicle (0.9% saline). The time lag to onset of cardiac conduction block is determined as the time from the start of CaCl2 infusion until the first arrhythmic event occurred. The first conduction block is defined as the first RR-interval, larger than or equal to 3 times one RR-interval from the pre-treatment period. The first arrhythmic event occurring is either a second degree AV-block (intermittent failure of the AV conduction characterized by a P-wave without the concomitant QRS complex) or a second degree SA block (prolonged RR-interval and a QRS-complex without a preceding P-wave). Responses are expressed relative to the time until 2nd degree AV-block occurred in vehicle treated mice.
The anti-arrhythmic effect of compounds according to the present teachings was tested in a model of calcium-induced arrhythmias according to the model of Lynch et al., J. Cardiovasc. Pharmacol. (1981), 3: 49-60. Male CD-1 mice were anaesthetized with Ketamine (75 mg/kg) and medetomidine (1 mg/kg) IP. An i.v. cannula was inserted into the tail vein. A lead II ECG signal was recorded continuously by positioning stainless steel ECG electrodes on the right forelimb and […]. The ground electrode was placed on the right hind limb. The signal was amplified and filtered using Gould physiograph components and po-ne-mah data acquisition software. After a 90 sec equilibration period test compound was injected into the tail vein (over 30 seconds). Mice pre-treated with vehicle (0.9% saline) were tested as control animals. The injection volume was 100 μl/30 g mice in all experiments. Infusion of CaCl2 (30 mg/mL, 0.1 mL/min/30 g mice, 100 mg/kg/min) was started 3 min after IV administration of drug or vehicle. The time lag to onset of cardiac conduction block was determined as the time from the start of CaCl2 infusion until the first arrhythmic event occurred. The first conduction block was defined as the first RR-interval, larger/or equal to, 3 times one RR-interval from the pre-treatment period. The first arrhythmic event occurring was either a second degree AV-block (intermittent failure of the AV conduction characterized by a P-wave without the concomitant QRS complex) or a second degree SA block (prolonged RR-interval and a QRS-complex without a preceding P-wave).
Mice pre-treated with vehicle (0.9% saline) were tested on all days as a measure for control level in untreated animal. Injection volume was 100 μL in all experiments. The time lag to onset of arrhythmias was determined as the time from the start of CaCl2 infusion until the first event of conduction block defined as intermittent failure of the SA or AV conduction characterized by delayed P-wave activation (SA block) or by a P-wave without the concomitant QRS complex (AV block). The time lag to onset of AV block is given below in Table 2.

SMILES	% Remaining (Plasma stability assay) [%]	half-life at 1 μM [1] [min]	Time to AV block (Male CD-1 mice) [s]	half-life in male rat liver microsomes
NCC(=O)N1C[C@H](NC(=O)c2ccccc2)C[C@H]1C(=O)NC1CC1 [Compound 68, (2S,4R) 1-(2-aminoacetyl)-4-benzamido-N-cyclopropylpyrrolidine-2-carboxamide]	96	> 30	143.8	–
CC(C)CNC(=O)[C@@H]1C[C@@H](NC(=O)c2ccccc2)CN1C(=O)CN [Compound 72, (2S,4R) 1-(2-aminoacetyl)-4-benzamido-N-isobutylpyrrolidine-2-carboxamide]	88	> 30	–	–
CC(C)(C)OC(=O)NCC(=O)N1C[C@H](NC(=O)c2ccccc2)C[C@H]1C(N)=O [Compound 69, (2S,4R) 4-benzamido-1-(2-(tert-butoxycarbonylamino)acetyl) pyrrolidine-2-carboxamide]	–	–	–	greater than 30 minutes
NCC(=O)N1C[C@H](NC(=O)c2ccccc2)C[C@H]1C(=O)NC1CCCC1 [Compound 71, (2S,4R) 1-(2-aminoacetyl)-4-benzamido-N-cyclopentylpyrrolidine-2-carboxamide]	90	> 30	–	–
CC(=O)NCC(=O)N1C[C@H](NC(=O)c2ccccc2)C[C@H]1C(=O)O [Compound 80, (2S,4R) 1-(2-acetamidoacetyl)-4-benzamidopyrrolidine-2-carboxylic acid]	100	> 30	111.5	–
O=C(N[C@@H]1C[C@@H](C(=O)O)N(C(=O)CNC(=O)C(F)(F)F)C1)c1ccccc1 [Compound 82, (2S,4R) 4-benzamido-1-(2-(2,2,2-trifluoroacetamido)acetyl)pyrrolidine-2-carboxylic acid]	34	> 30	113.8	–
CNCC(=O)N1C[C@H](NC(=O)c2ccccc2)C[C@H]1C(=O)O [Compound 81, (2S,4R) 4-benzamido-1-(2-(methylamino)acetyl)-pyrrolidine-2-carboxylic acid]	100	> 30	123.2	–
NCC(=O)N1C[C@H](NC(=O)c2ccccc2)C[C@H]1C(=O)NC1CCC1 [Compound 73, (2S,4R) 1-(2-aminoacetyl)-4-benzamido-N-cyclobutylpyrrolidine-2-carboxamide]	95	> 30	–	–
CNC(=O)[C@@H]1C[C@@H](NC(=O)c2ccccc2)CN1C(=O)CN [Compound 65, (2S,4R) 1-(2-aminoacetyl)-4-benzamido-N-methylpyrrolidine-2-carboxamide]	87	> 30	115.2	–
CN(C)CC(=O)N1C[C@H](NC(=O)c2ccccc2)C[C@H]1C(=O)O [Compound 84, (2S,4R) 4-benzamido-1-(2-(dimethylamino)acetyl)pyrrolidine-2-carboxylic acid]	100	> 30	108.8	–
CCC(CC)NC(=O)[C@@H]1C[C@@H](NC(=O)c2ccccc2)CN1C(=O)CN [Compound 70, (2S,4R) 1-(2-aminoacetyl)-4-benzamido-N-(pentan-3-yl)pyrrolidine-2-carboxamide]	93	> 30	–	–
CCNC(=O)[C@@H]1C[C@@H](NC(=O)c2ccccc2)CN1C(=O)CN [Compound 66, (2S,4R) 1-(2-aminoacetyl)-4-benzamido-N-ethylpyrrolidine-2-carboxamide]	100	> 30	122.7	–
O=CNCC(=O)N1C[C@H](NC(=O)c2ccccc2)C[C@H]1C(=O)O [Compound 85, (2S,4R) 4-benzamido-1-(2-formamidoacetyl)pyrrolidine-2-carboxylic acid]	107	–	–	–
NCC(=O)N1C[C@H](NC(=O)c2ccccc2)C[C@H]1C(N)=O [Compound 64, (2S,4R) 1-(2-aminoacetyl)-4-benzamidopyrrolidine-2-carboxamide]	27	> 30	111.7	–
O=C(CO)Nc1cc(NC(=O)c2ccccc2)cc(C(=O)O)c1 [Compound 54, 3-Benzoylamino-5-(2-hydroxy-acetylamino)-benzoic acid]	–	–	121.7	–
CC(C)NC(=O)[C@@H]1C[C@@H](NC(=O)c2ccccc2)CN1C(=O)CN [Compound 67, (2S,4R) 1-(2-aminoacetyl)-4-benzamido-N-isopropylpyrrolidine-2-carboxamide]	100	> 30	134.4	–
NC(CCC(=O)O)C(=O)N1C[C@H](NC(=O)c2ccccc2)C[C@H]1C(=O)O (stereo partly drawn) [Compound 6, (2S,4R)1-(2-Amino-4-carboxy-butyryl)-4-benzoylamino-pyrrolidine-2-carboxylic acid]	–	–	117.9	–
O=C(N[C@@H]1C[C@@H](C(=O)O)N(C(=O)CO)C1)c1ccccc1 [Compound 52, (2S,4R) 4-Benzoylamino-1-(2-hydroxy-acetyl)-pyrrolidine-2-carboxylic acid]	–	–	135.6	–
NCC(=O)Nc1cc(NC(=O)c2ccccc2)cc(C(=O)O)c1 [Compound 26, 3-(2-Amino-acetylamino)-5-benzoylamino-benzoic acid]	–	–	122.8	–
NC(=O)C1N(C(=O)CO)CCN1C(=O)c1ccccc1 (stereo not drawn) [Compound 56, 1-Benzoyl-3-(2-hydroxy-acetyl)-imidazolidine-2-carboxylic acid amide]	–	–	128.1	–
CC(C)(C)OC(=O)NCC(=O)N1C[C@H](NC(=O)c2ccccc2)C[C@H]1C(=O)O [Compound 83, (2S,4R) 4-benzamido-1-(2-(tert-butoxycarbonylamino)acetyl) pyrrolidine-2-carboxylic acid]	100	> 30	110.9	–
